Read-outs that look alike come from different tables or passages of the source.
What was measured:
[1] = test system: Fes in TF-1/Flt3-ITD cells; assay: Immunoprecipitation/immunoblot of Fes pY713 in TF-1/Flt3-ITD cells; format: cell-based, human; conditions: compound at in vitro IC90 for Fes, 16 h (tandutinib: IC90 for Flt3-ITD, 6 h)
Experimental: (§1) AML cells (2.5 x 10^6 in 5 mL) were cultured in the presence of kinase inhibitors or DMSO alone for 6 to 16 hours prior to lysis by sonication in RIPA buffer (50 mM Tris-HCl, pH 7.4, 150 mM NaCl, 1 mM EDTA, 1% Triton X-100, 0.1% SDS, 1% sodium deoxycholate) supplemented with 1 mM sodium orthovanadate, 1 mM sodium fluoride, 5 units/ml Benzonase (Novagen), and SigmaFAST EDTA-free protease inhibitor cocktail (Sigma). Flt3 and Fes were immunoprecipitated from 1 mg of cell lysate with 2 μg of antibody and 25 μL of protein G-Sepharose beads (Life Technologies) overnight at 4°C. Immunoprecipitates were washed three times by resuspension in 1.0 ml of RIPA buffer. Immunoprecipitated proteins were separated by SDS-PAGE, transferred to PVDF membranes and probed with the indicated antibodies followed by alkaline phosphatase-linked secondary antibodies. CDP-Star Western Blot Chemiluminescence Reagent (Perkin-Elmer) was used for detection.
(§2) Raw fluorescence data were corrected for background and then normalized to cultures grown in the presence of the DMSO carrier solvent. Each condition was performed in triplicate, and results are presented as the mean of the normalized values ± the SD. The resulting dose-response curves were fitted by non-linear regression analysis for estimation of the IC50 values (see Table 2). […] Fes and Flt3 kinase proteins were then immunoprecipitated from cell lysates followed by immunoblotting with antibodies to phosphotyrosine (pTyr), the Fes activation loop phosphotyrosine (pY713), as well as the Flt3 and Fes proteins.

[2] = test system: Flt3-ITD in TF-1/Flt3-ITD cells; assay: Immunoprecipitation/immunoblot of Flt3 phosphotyrosine content in TF-1/Flt3-ITD cells; format: cell-based, human; conditions: compound at in vitro IC90 for Fes, 16 h (tandutinib: IC90 for Flt3-ITD, 6 h)
Experimental: as §1, §2

[3] = test system: Flt3-ITD+ AML cell lines (MV4-11, MOLM-13, MOLM-14); assay: Growth inhibition across Flt3-ITD+ AML cell lines; format: cell-based; conditions: Homo sapiens, 72 h
Experimental: (§3) Cells were seeded at a density of 100,000 cells per 1.0 ml in 48-well culture plates. Compounds were added to various concentrations while holding the DMSO concentration constant at 0.1%. Cell viability was assessed 72 hours later using the CellTiter-Blue Cell Viability assay (Promega) according to the manufacturer’s protocol and a SpectraMax Multi-Mode Microplate Reader (Molecular Devices). IC50 values were determined by non-linear regression analysis of concentration-response curves using the GraphPad PRISM software package (version 6.0). Apoptosis was determined using the same cell culture conditions and the Apo-ONE Homogeneous Caspase-3/7 Assay (Promega) and the manufacturer’s protocol.
Raw fluorescence data were corrected for background and then normalized to cultures grown in the presence of the DMSO carrier solvent. Each assay condition was performed in triplicate, and results are presented as the mean of the normalized values ± the SD.

[4] = test system: Flt3-ITD in MV4-11 and MOLM-14 cells; assay: Immunoprecipitation/immunoblot of Flt3 phosphotyrosine content in AML cells; format: cell-based, human; conditions: compound at in vitro IC90 for Fes, 16 h (tandutinib: IC90 for Flt3-ITD, 6 h)
Experimental: as §1
(§4) Fes and Flt3 kinase proteins were then immunoprecipitated from cell lysates, followed by immunoblotting with antibodies to phosphotyrosine (pTyr), the Fes activation loop phosphotyrosine (pY713), as well as the Flt3 and Fes proteins.

[5] = test system: Flt3-ITD+ AML cell lines (MV4-11, MOLM-13, MOLM-14); assay: Apoptosis, Apo-ONE Caspase 3/7 assay; format: cell-based, human; conditions: 1.0 μM, 72 h
Experimental: as §3
Cell viability was measured in parallel using the CellTiter-Blue assay, and the resulting data are presented as the ratio of Caspase activity to cell viability as per the manufacturer’s protocol. All assays were performed in triplicate, and data are presented as the mean ratios ± SD. Asterisks indicate statistical significance between each treatment group vs. the corresponding DMSO control group with p < 0.05 (Student’s t-test).

[6] = target: Flt3-ITD kinase domain (Homo sapiens, UniProt P36888); assay: In vitro kinase assay (Z'-LYTE); format: biochemical; conditions: ATP at Km
Experimental: (§5) Recombinant protein kinase assays were performed using the FRET-based Z’-LYTE Kinase Assay according to the manufacturer’s instructions (Thermo Fisher Scientific). […] The Tyr-2 peptide was used as substrate for all recombinant kinases. Kinases were preincubated with inhibitors for 30 minutes, followed by addition of ATP and peptide substrate for 1 hour. Reactions were quenched by addition of development reagent, followed by incubation for an additional hour prior to fluorescence measurements on a SpectraMax M5 microplate reader. IC50 values were calculated by non-linear regression analysis of the resulting concentration-response curves using GraphPad PRISM.

[7] = target: T1, Flt3-WT kinase domain (Homo sapiens, UniProt P36888); assay: In vitro kinase assay (Z'-LYTE); format: biochemical; conditions: ATP at Km
T1 construct: Recombinant Flt3-WT, Flt3-ITD, and Flt3-D835Y kinase domain proteins were purchased from Life Technologies; purchased Life Technologies
Experimental: as §5

[8] = target: T2, Flt3-D835Y kinase domain (Homo sapiens, UniProt P36888, D835Y); assay: In vitro kinase assay (Z'-LYTE); format: biochemical; conditions: for IC50: ATP at Km
T2 construct: Recombinant Flt3-WT, Flt3-ITD, and Flt3-D835Y kinase domain proteins were purchased from Life Technologies; purchased Life Technologies
T2 sequence (P36888 610-943 D835Y limits assumed): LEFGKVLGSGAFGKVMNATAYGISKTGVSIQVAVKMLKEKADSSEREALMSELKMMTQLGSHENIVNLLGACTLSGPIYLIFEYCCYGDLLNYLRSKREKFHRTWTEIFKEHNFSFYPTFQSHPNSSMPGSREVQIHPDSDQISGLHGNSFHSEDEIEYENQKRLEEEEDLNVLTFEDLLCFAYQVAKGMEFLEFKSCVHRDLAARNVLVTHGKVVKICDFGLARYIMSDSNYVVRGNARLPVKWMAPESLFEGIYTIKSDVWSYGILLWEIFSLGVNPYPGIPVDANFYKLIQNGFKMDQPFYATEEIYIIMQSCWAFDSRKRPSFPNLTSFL
Experimental: as §5

[9] = test system: TF-1 cells expressing Flt3-WT; assay: Inhibitor sensitivity of TF-1 cell populations, CellTiter-Blue, 72 h; format: cell-based
Experimental: as §3
For each retroviral transduction, TF-1 cells (1 x 10^6) were suspended in 5 mL of undiluted viral supernatant and plated in one well of a 6-well tissue culture dish. Polybrene (Sigma) was added to a final concentration of 4 μg/mL and the TF-1 cells were centrifuged at 1000 x g for 3 hours to enhance retroviral mediated gene transfer. After centrifugation, the virus was removed and replaced with fresh medium.
as §2

[10] = test system: Flt3-D835Y in TF-1/Flt3-D835Y cells; assay: Immunoprecipitation/immunoblot of Flt3-D835Y phosphotyrosine content in TF-1/Flt3-D835Y cells; format: cell-based, human; conditions: immunoblot, compound at in vitro IC90
Experimental: as §1, §2

[11] = test system: T3, Fes in MV4-11 and MOLM-14 cells; assay: Immunoprecipitation/immunoblot of Fes activation loop phosphorylation (pY713) in AML cells; format: cell-based, human; conditions: compound at in vitro IC90 for Fes, 16 h (tandutinib: IC90 for Flt3-ITD, 6 h)
T3 construct: endogenous in cells; host or cells: MV4-11 and MOLM-14
Experimental: as §1, §4

SMILES | Inhibition of Fes activation loop phosphorylation in TF-1/Flt3-ITD cells [1] | Inhibition of Flt3-ITD phosphotyrosine content in TF-1/Flt3-ITD cells [2] | IC50 ([3]; MV4-11, MOLM-13, MOLM-14, read-out: IC50 values for growth inhibition, range over the Flt3-ITD+ AML cell lines) [µM] | Inhibition of Flt3-ITD phosphotyrosine content in MV4-11 and MOLM-14 cells [4] | Apoptosis (Caspase 3/7 activity) in Flt3-ITD+ AML cell lines [5] | IC50 [6] [nM] | IC50 [7] [nM] | IC50 [8] [nM] | IC50 ([9]; Homo sapiens, TF-1, 72 h; read-out: Inhibitor sensitivity of TF-1 Cell Populations (IC50, nM) Flt3-WT) [nM] | Inhibition of Flt3-D835Y phosphotyrosine content in TF-1/Flt3-D835Y cells [10] | Inhibition of Fes activation loop phosphorylation in MV4-11 and MOLM-14 cells [11] | IC50 ([3]; read-out: IC50 values for growth inhibition in all three Flt3-ITD+ AML cell lines) [µM] | Sensitivity of Flt3-D835Y compared to wild-type Flt3 in vitro ([8]; in vitro kinase assays) | IC50 ([9]; Homo sapiens, TF-1, 72 h, read-out: Inhibitor sensitivity of TF-1 Cell Populations (IC50, nM) Flt3-WT) [nM]
CCN1CCN(Cc2ccc(NC(=O)c3ccc(C)c(Oc4ccnc5[nH]ccc45)c3)cc2C(F)(F)F)CC1 [HG7-92-01] | inhibited both Flt3-ITD and Fes | inhibited both Flt3-ITD and Fes | 0.019 to 0.166 | inhibited Flt3-ITD and Fes in both cell lines | equal to or greater than that observed with tandutinib | 149 | 536 | 3650 | > 1000 | without effect | inhibited Flt3-ITD and Fes in both cell lines |  |  | 
COc1cc(N2CCC(O)CC2)ccc1Nc1nc(Nc2ccccc2S(=O)(=O)C(C)C)c2cn[nH]c2n1 [WZ4-49-1] | only inhibited the activity of Fes | only inhibited the activity of Fes |  | only inhibited Fes | less pronounced | 1390 | 3140 | 642 |  | complete inhibition | only inhibited Fes | ~1 | about 5 fold | > 3000

From article PMC5519068 (PLoS ONE, 2017)
